From PubChem BioAssay AID2060888 (Molecular Pharmacology Branch, DTP, NCI, 2025)

System: 695427-040-R-J1-PDC complex spheroid viability
Assay: Anticancer human tumor 695427-040-R-J1-PDC patient-derived colon adenocarcinoma cell line growth inhibition [RAS]
Conditions: for IC50: curve of first compound; for viability, T/C: stronger effect = lower value; active means viability on the fitted dose curve at most 10% of control; inactive means the rest
Method in brief: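 Agents were tested in combination matrices in half-log decrements from a top concentration at or near clinical Cmax (10 microM if undetermined). Targets were multi-cell spheroids of tumour lines plus HUVEC and MSC stromal cells.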

[1] = second compound 0.000949 µM, first compound 0.0316 µM
[2] = second compound 0.000949 µM, first compound 0.1 µM
[3] = second compound 0.000949 µM, first compound 0.316 µM
[4] = second compound 0.000949 µM, first compound 1 µM
[5] = second compound 0.000949 µM, first compound 3.16 µM
[6] = second compound 0.000949 µM, first compound 10 µM
[7] = second compound 0.003 µM, first compound 0.0316 µM
[8] = second compound 0.003 µM, first compound 0.1 µM
[9] = second compound 0.003 µM, first compound 0.316 µM
[10] = second compound 0.003 µM, first compound 1 µM
[11] = second compound 0.003 µM, first compound 3.16 µM
[12] = second compound 0.003 µM, first compound 10 µM
[13] = second compound 0.00949 µM, first compound 0.0316 µM
[14] = second compound 0.00949 µM, first compound 0.1 µM
[15] = second compound 0.00949 µM, first compound 0.316 µM
[16] = second compound 0.00949 µM, first compound 1 µM
[17] = second compound 0.00949 µM, first compound 3.16 µM
[18] = second compound 0.00949 µM, first compound 10 µM
[19] = second compound 0.03 µM, first compound 0.0316 µM
[20] = second compound 0.03 µM, first compound 0.1 µM
[21] = second compound 0.03 µM, first compound 0.316 µM
[22] = second compound 0.03 µM, first compound 1 µM
[23] = second compound 0.03 µM, first compound 3.16 µM
[24] = second compound 0.03 µM, first compound 10 µM
[25] = second compound 0.0949 µM, first compound 0.0316 µM
[26] = second compound 0.0949 µM, first compound 0.1 µM
[27] = second compound 0.0949 µM, first compound 0.316 µM
[28] = second compound 0.0949 µM, first compound 1 µM
[29] = second compound 0.0949 µM, first compound 3.16 µM
[30] = second compound 0.0949 µM, first compound 10 µM
[31] = second compound 0.3 µM, first compound 0.0316 µM
[32] = second compound 0.3 µM, first compound 0.1 µM
[33] = second compound 0.3 µM, first compound 0.316 µM
[34] = second compound 0.3 µM, first compound 1 µM
[35] = second compound 0.3 µM, first compound 3.16 µM
[36] = second compound 0.3 µM, first compound 10 µM
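Further: viability read after seven days of drug exposure.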
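Wherever viability, T/C is given: 100% = DMSO vehicle control viability.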

CC(=O)OC12COC1CC(O)C1(C)C(=O)C(O)C3=C(C)C(OC(=O)C(O)C(NC(=O)OC(C)(C)C)c4ccccc4)CC(O)(C(OC(=O)c4ccccc4)C21)C3(C)C (stereo unspecified) + CCn1c(-c2cccnc2C(C)OC)c2c3cc(ccc31)N1CCOC(CC(NC(=O)C(C(C)C)N(C)C(=O)C3(F)CCN(C(=O)C#CC(C)(C)N(C)C)CC3)C(=O)N3CCCC(N3)C(=O)OCC(C)(C)C2)C1
inactive: viability, T/C [1] 81% | viability, T/C [2] 73.9% | viability, T/C [3] 76% | viability, T/C [4] 61.4% | viability, T/C [5] 65.3% | viability, T/C [6] 73.5% | viability, T/C [7] 95.7% | viability, T/C [8] 77.1% | viability, T/C [9] 61.1% | viability, T/C [10] 64.1% | viability, T/C [11] 70.8% | viability, T/C [12] 66.9% | viability, T/C [13] 107% | viability, T/C [14] 61% | viability, T/C [15] 67.4% | viability, T/C [16] 69.3% | viability, T/C [17] 78.5% | viability, T/C [18] 69% | viability, T/C [19] 83.6% | viability, T/C [20] 71.9% | viability, T/C [21] 61% | viability, T/C [22] 68.4% | viability, T/C [23] 78.8% | viability, T/C [24] 77% | viability, T/C [25] 77.7% | viability, T/C [26] 51.4% | viability, T/C [27] 67.1% | viability, T/C [28] 57.4% | viability, T/C [29] 76% | viability, T/C [30] 82.4% | viability, T/C [31] 76.8% | viability, T/C [32] 60.1% | viability, T/C [33] 68.1% | viability, T/C [34] 51.7% | viability, T/C [35] 43.9% | viability, T/C [36] 71.1%
> 10 µM: IC50 (second compound 0.000949 µM) | IC50 (second compound 0.003 µM) | IC50 (second compound 0.00949 µM) | IC50 (second compound 0.03 µM) | IC50 (second compound 0.0949 µM) | IC50 (second compound 0.3 µM)

NC1c2ccccc2OC12CCN(c1cnc3c(N4CCCc5ncccc54)n[nH]c3n1)CC2 (stereo unspecified) + CCn1c(-c2cccnc2C(C)OC)c2c3cc(ccc31)N1CCOC(CC(NC(=O)C(C(C)C)N(C)C(=O)C3(F)CCN(C(=O)C#CC(C)(C)N(C)C)CC3)C(=O)N3CCCC(N3)C(=O)OCC(C)(C)C2)C1
0.623 µM: IC50 (second compound 0.03 µM)
0.914 µM: IC50 (second compound 0.000949 µM)
0.94 µM: IC50 (second compound 0.0949 µM)
0.973 µM: IC50 (second compound 0.00949 µM)
0.665 µM: IC50 (second compound 0.3 µM)
inactive: viability, T/C [1] 80.3% | viability, T/C [2] 78.3% | viability, T/C [3] 61.7% | viability, T/C [4] 49.1% | viability, T/C [5] 50.5% | viability, T/C [6] 43.2% | viability, T/C [7] 88.9% | viability, T/C [8] 70.5% | viability, T/C [9] 60.6% | viability, T/C [10] 45.7% | viability, T/C [11] 55.7% | viability, T/C [12] 38.6% | viability, T/C [13] 95.2% | viability, T/C [14] 58.1% | viability, T/C [15] 62.7% | viability, T/C [16] 54.6% | viability, T/C [17] 54.1% | viability, T/C [18] 32.8% | viability, T/C [19] 79.3% | viability, T/C [20] 63.4% | viability, T/C [21] 53% | viability, T/C [22] 45.1% | viability, T/C [23] 50.6% | viability, T/C [24] 35.3% | viability, T/C [25] 67% | viability, T/C [26] 67.4% | viability, T/C [27] 53.2% | viability, T/C [28] 47.4% | viability, T/C [29] 46.2% | viability, T/C [30] 31.7% | viability, T/C [31] 75.3% | viability, T/C [32] 46.4% | viability, T/C [33] 60.4% | viability, T/C [34] 51.8% | viability, T/C [35] 38.9% | viability, T/C [36] 27.1%
1.37 µM: IC50 (second compound 0.003 µM)

Nc1ccn(C2OC(CO)C(O)C2(F)F)c(=O)n1 (stereo unspecified) + CCn1c(-c2cccnc2C(C)OC)c2c3cc(ccc31)N1CCOC(CC(NC(=O)C(C(C)C)N(C)C(=O)C3(F)CCN(C(=O)C#CC(C)(C)N(C)C)CC3)C(=O)N3CCCC(N3)C(=O)OCC(C)(C)C2)C1
inactive: viability, T/C (second compound 0.000949 µM, first compound 0.00316 µM) 92.7% | viability, T/C (second compound 0.000949 µM, first compound 0.01 µM) 106% | viability, T/C [1] 98.3% | viability, T/C [2] 82% | viability, T/C [3] 77.3% | viability, T/C [4] 67.5% | viability, T/C (second compound 0.003 µM, first compound 0.00316 µM) 79.4% | viability, T/C (second compound 0.003 µM, first compound 0.01 µM) 98% | viability, T/C [7] 87.3% | viability, T/C [8] 71% | viability, T/C [9] 83.5% | viability, T/C [10] 58.6% | viability, T/C (second compound 0.00949 µM, first compound 0.00316 µM) 98.3% | viability, T/C (second compound 0.00949 µM, first compound 0.01 µM) 74.3% | viability, T/C [13] 87.2% | viability, T/C [14] 64.8% | viability, T/C [15] 82.7% | viability, T/C [16] 63.5% | viability, T/C (second compound 0.03 µM, first compound 0.00316 µM) 83% | viability, T/C (second compound 0.03 µM, first compound 0.01 µM) 99% | viability, T/C [19] 83.5% | viability, T/C [20] 75.9% | viability, T/C [21] 83.1% | viability, T/C [22] 74.2% | viability, T/C (second compound 0.0949 µM, first compound 0.00316 µM) 80% | viability, T/C (second compound 0.0949 µM, first compound 0.01 µM) 94.6% | viability, T/C [25] 99.6% | viability, T/C [26] 73.5% | viability, T/C [27] 77.8% | viability, T/C [28] 62.2% | viability, T/C (second compound 0.3 µM, first compound 0.00316 µM) 63.5% | viability, T/C (second compound 0.3 µM, first compound 0.01 µM) 97.8% | viability, T/C [31] 80.8% | viability, T/C [32] 79.3% | viability, T/C [33] 78.7% | viability, T/C [34] 65.7%
> 1 µM: IC50 (second compound 0.000949 µM) | IC50 (second compound 0.003 µM) | IC50 (second compound 0.00949 µM) | IC50 (second compound 0.03 µM) | IC50 (second compound 0.0949 µM) | IC50 (second compound 0.3 µM)
